Laboratory results as given in ChEMBL document CHEMBL2434923, “Synthesis of quinoidal molecules: strategies towards bioactive compounds with an emphasis on lapachones” (Eur J Med Chem, 2013).

Columns and labels:
KB = test: Cytotoxicity against human KB cells; assay type: functional, cell-based
HeLa = test: Cytotoxicity against human HeLa cells; assay type: functional, cell-based
[1] = Cytotoxicity against human HepG cells; assay type: functional, cell-based
Trypanosoma cruzi [2] = test: Antitrypanosomal activity against Trypanosoma cruzi; assay type: functional, organism-based
Trypanosoma cruzi [3] = test: Antitrypanosomal activity against Trypanosoma cruzi after 24 hrs; assay type: functional, organism-based

`O=C1C(=O)c2ccccc2C2=C1CCO2` showed an IC50 (KB) of 920 nM, an IC50 (HeLa) of 920 nM and an IC50 [1] of 920 nM.

`CC1(C)CCc2c(c3ccccc3c3nc(-c4ccccc4)[nH]c23)O1` showed an IC50 (Trypanosoma cruzi [2]) of 39.4 µM.

`O=C1C(=O)c2ccccc2C2=C1CCCO2` gave an IC50 (KB) of 920 nM, an IC50 (HeLa) of 920 nM and an IC50 [1] of 920 nM.

With `CC1(C)CCc2c(c3ccccc3c3nc(-c4ccccc4)oc23)O1` the IC50 (Trypanosoma cruzi [3]) was 284 µM.

`CC1(C)CCc2c(c3ccccc3c3nc(-c4c[nH]c5ccccc45)[nH]c23)O1` showed an IC50 (Trypanosoma cruzi [2]) of 15.4 µM.

Work on `Cc1ccc(-c2nc3c([nH]2)c2c(c4ccccc43)OC(C)(C)CC2)cc1` yielded an IC50 (Trypanosoma cruzi [2]) of 15.5 µM.

For `CC1(C)CCc2c(c3ccccc3c3ncoc23)O1`, the IC50 (Trypanosoma cruzi [3]) was 325 µM.
